The results in this text go back to a compilation of properties of binary mixtures (doi:10.1016/j.molliq.2020.113127).

What is called viscosity is the internal friction of a fluid under shear.

The structures appear in SMILES notation.

This data set in a line: xn = mol fraction of the nth substance listed. The following applies: 101 kPa.

Take `CC[N+](CC)(CC)CC.[Cl-]` + CC(=O)O: the viscosity is, setting by setting: (298.15 K, x1 = 0.333) 34.46 mPa·s; (303.15 K, x1 = 0.333) 27.81 mPa·s; (308.15 K, x1 = 0.333) 22.91 mPa·s; (313.15 K, x1 = 0.333) 19.51 mPa·s; (318.15 K, x1 = 0.333) 16.53 mPa·s; (323.15 K, x1 = 0.333) 13.93 mPa·s.

Regarding `C[P+](c1ccccc1)(c1ccccc1)c1ccccc1.[Br-]` + OCCO, the viscosity (313.15 K, x1 = 0.25) turned out to be 53.81 mPa·s; the viscosity (318.15 K, x1 = 0.25) amounted to 40.74 mPa·s; the viscosity (328.15 K, x1 = 0.25) is 25.16 mPa·s; the viscosity (333.15 K, x1 = 0.25) turned out to be 20.33 mPa·s.
